Values of other authors in patent US20130189275A1, “COMPOSITIONS AND METHODS FOR INHIBITION OF OR TREATMENT OF DENGUE VIRUS INFECTION” (priority 2010, published 2013).

In the case of `C=C(c1ccc(C(=O)O)cc1)c1cc2c(cc1C)C(C)(C)CCC2(C)C` [bexarotene], the syndecan-2 expression (Syndecan-2) is given as “downregulated”.

For `C[C@]12CCC(=O)C[C@@H]1CC[C@@H]1[C@@H]2CC[C@]2(C)[C@@H](O)CC[C@@H]12` [dihydrotestosterone], the syndecan-3 expression (Syndecan-3) is given as “downregulated”.

In the case of `O=C1NC(=O)C(c2ccccc2)(c2ccccc2)N1` [phenyloin (PHT), phenyloin], the syndecan-4 expression (Syndecan-4) is listed as “downregulated”.

In the case of `Cc1cccc(Nc2cc(Cl)nc(SCC(=O)O)n2)c1C` [pirinixic acid], the syndecan-1 expression (Syndecan-1) is given as “downregulated”.

In the case of `CC1=C(/C=C/C(C)=C/C=C/C(C)=C/C(=O)O)C(C)(C)CCC1` [tretinoin], the syndecan-1 expression (Syndecan-1) is given as “downregulated”.
